This series concerns CCRIS mutagenicity, Ames/micronucleus/aberration tests. In words: CCRIS mutagenicity studies.
Where [1] appears, read: Test System: AMES SALMONELLA TYPHIMURIUM, Strain/Indicator: TA100, Metabolic Activation: NONE, Method: STANDARD PLATE.

Among the data in PubChem BioAssay AID1259407 (Chemical Carcinogenesis Research Information System (CCRIS), 2018) are mutagenic call values, retold here.

Structures are written as SMILES. Active and inactive are the calls of the source. No rule for the calls is given here.

As for `COc1ccc2nc(N)sc2c1`, the mutagenic call reads like this: (Test System: AMES SALMONELLA TYPHIMURIUM, Strain/Indicator: TA98, Metabolic Activation: HAMSTER, LIVER, S-9, AROCLOR 1254, Method: STANDARD PLATE) “active; positive”; (Test System: AMES SALMONELLA TYPHIMURIUM, Strain/Indicator: TA98, Metabolic Activation: NONE, Method: STANDARD PLATE) “active; positive”; (Test System: AMES SALMONELLA TYPHIMURIUM, Strain/Indicator: TA98, Metabolic Activation: RAT, LIVER, S-9, AROCLOR 1254, Method: STANDARD PLATE) “active; positive”; (Test System: AMES SALMONELLA TYPHIMURIUM, Strain/Indicator: TA100, Metabolic Activation: HAMSTER, LIVER, S-9, AROCLOR 1254, Method: STANDARD PLATE) “active; positive”; under setting [1], “inactive; negative”; (Test System: AMES SALMONELLA TYPHIMURIUM, Strain/Indicator: TA100, Metabolic Activation: RAT, LIVER, S-9, AROCLOR 1254, Method: STANDARD PLATE) “active; positive”. Also, the mutagenic call is “active; positive” (Test System: AMES SALMONELLA TYPHIMURIUM, Strain/Indicator: TA1535, Metabolic Activation: HAMSTER, LIVER, S-9, AROCLOR 1254, Method: STANDARD PLATE); “inactive; negative” (Test System: AMES SALMONELLA TYPHIMURIUM, Strain/Indicator: TA1535, Metabolic Activation: NONE, Method: STANDARD PLATE); “active; positive” (Test System: AMES SALMONELLA TYPHIMURIUM, Strain/Indicator: TA1535, Metabolic Activation: RAT, LIVER, S-9, AROCLOR 1254, Method: STANDARD PLATE); “active; positive” (Test System: AMES SALMONELLA TYPHIMURIUM, Strain/Indicator: TA1537, Metabolic Activation: HAMSTER, LIVER, S-9, AROCLOR 1254, Method: STANDARD PLATE); “inactive; negative” (Test System: AMES SALMONELLA TYPHIMURIUM, Strain/Indicator: TA1537, Metabolic Activation: NONE, Method: STANDARD PLATE); “active; positive” (Test System: AMES SALMONELLA TYPHIMURIUM, Strain/Indicator: TA1537, Metabolic Activation: RAT, LIVER, S-9, AROCLOR 1254, Method: STANDARD PLATE). For the same molecule, the mutagenic call reads like this: (Test System: AMES SALMONELLA TYPHIMURIUM, Strain/Indicator: TA1538, Metabolic Activation: HAMSTER, LIVER, S-9, AROCLOR 1254, Method: STANDARD PLATE) “active; positive”; (Test System: AMES SALMONELLA TYPHIMURIUM, Strain/Indicator: TA1538, Metabolic Activation: NONE, Method: STANDARD PLATE) “active; positive”; (Test System: AMES SALMONELLA TYPHIMURIUM, Strain/Indicator: TA1538, Metabolic Activation: RAT, LIVER, S-9, AROCLOR 1254, Method: STANDARD PLATE) “active; positive”; (Test System: MOUSE LYMPHOMA, Strain/Indicator: L5178Y (TK+/TK-), Metabolic Activation: NONE, Method: SUSPENSION/PLATE) “inactive; negative. reevaluation of results: negative”; (Test System: MOUSE LYMPHOMA, Strain/Indicator: L5178Y (TK+/TK-), Metabolic Activation: RAT, LIVER, S-9, AROCLOR 1254, Method: SUSPENSION/PLATE) “active; positive. reevaluation of results: positive”.

`Nc1cc(S(=O)(=O)O)c2cccc(S(=O)(=O)O)c2c1`: the mutagenic call was “inactive; negative” (Test System: AMES SALMONELLA TYPHIMURIUM, Strain/Indicator: TA98, Metabolic Activation: NONE, Method: PREINCUBATION); “inactive; negative” (Test System: AMES SALMONELLA TYPHIMURIUM, Strain/Indicator: TA98, Metabolic Activation: RAT LIVER S-9, PHENOBARBITAL AND BETA-NAPHTHOFLAVONE, Method: PREINCUBATION); “inactive; negative” (Test System: AMES SALMONELLA TYPHIMURIUM, Strain/Indicator: TA100, Metabolic Activation: NONE, Method: PREINCUBATION); “inactive; negative” (Test System: AMES SALMONELLA TYPHIMURIUM, Strain/Indicator: TA100, Metabolic Activation: RAT LIVER S-9, PHENOBARBITAL AND BETA-NAPHTHOFLAVONE, Method: PREINCUBATION); “inactive; negative” (Test System: AMES SALMONELLA TYPHIMURIUM, Strain/Indicator: TA1535, Metabolic Activation: NONE, Method: PREINCUBATION); “inactive; negative” (Test System: AMES SALMONELLA TYPHIMURIUM, Strain/Indicator: TA1535, Metabolic Activation: RAT LIVER S-9, PHENOBARBITAL AND BETA-NAPHTHOFLAVONE, Method: PREINCUBATION). In addition, the mutagenic call was “inactive; negative” (Test System: AMES SALMONELLA TYPHIMURIUM, Strain/Indicator: TA1537, Metabolic Activation: NONE, Method: PREINCUBATION); “inactive; negative” (Test System: AMES SALMONELLA TYPHIMURIUM, Strain/Indicator: TA1537, Metabolic Activation: RAT LIVER S-9, PHENOBARBITAL AND BETA-NAPHTHOFLAVONE, Method: PREINCUBATION); “inactive; negative” (Test System: AMES SALMONELLA TYPHIMURIUM, Strain/Indicator: TA1538, Metabolic Activation: NONE, Method: PREINCUBATION); “inactive; negative” (Test System: AMES SALMONELLA TYPHIMURIUM, Strain/Indicator: TA1538, Metabolic Activation: RAT LIVER S-9, PHENOBARBITAL AND BETA-NAPHTHOFLAVONE, Method: PREINCUBATION); “inactive; negative” (Test System: E.COLI, Strain/Indicator: WP2UVRA, Metabolic Activation: NONE, Method: PREINCUBATION); “inactive; negative” (Test System: E.COLI, Strain/Indicator: WP2UVRA, Metabolic Activation: RAT LIVER S-9, PHENOBARBITAL AND BETA-NAPHTHOFLAVONE, Method: PREINCUBATION).

With `Cc1cc(NS(=O)(=O)c2ccc(N)cc2)no1`, the mutagenic call (End Point: AMES SALMONELLA TYPHIMURIUM, Test System: TA98, Metabolic Activation: NONE, Method: STANDARD PLATE) was “active; positive” and the mutagenic call (End Point: AMES SALMONELLA TYPHIMURIUM, Test System: TA100, Metabolic Activation: NONE, Method: STANDARD PLATE) is “active; positive”.

As for `CC(=O)N(O)c1ccc(Oc2ccccc2)cc1`, the mutagenic call was “active; positive” (Test System: AMES SALMONELLA TYPHIMURIUM, Strain/Indicator: TA100, Metabolic Activation: GUINEA PIG, LIVER, S-9, KANECLOR 500, Method: STANDARD PLATE); “inactive; negative” under setting [1]; “active; positive” (Test System: AMES SALMONELLA TYPHIMURIUM, Strain/Indicator: TA100, Metabolic Activation: RAT, LIVER, S-9, KANECLOR 500, Method: STANDARD PLATE).
